Source: a melting point compilation (Tetko et al.; mined from patent text by program, amines drawn as free bases though some values may be those of a salt)

| melting point | SMILES |
| --- | --- |
| 202 to 204 °C | CCOC(=O)c1cnc2c(C=O)cc(CN3CCOCC3)cc2c1O |
| 236 to 237 °C | CCOC(=O)c1ccnc(-c2nc(=O)c3ccccc3s2)c1 |
| 81 to 83 °C | COc1cc2c(c(OC)c1OC)OCC2=O |
| 111 to 112 °C | COC(=O)Oc1ccc([N+](=O)[O-])cc1 |
| 187 to 189 °C | CCCCc1nn(-c2ccccc2C(F)(F)F)c(=O)n1Cc1ccc(-c2ccccc2S(=O)(=O)NC(=O)C2CC2)cc1 |
| 79 °C | COc1cccc2c1CCC1C(C)=C(O[Si](C)(C)C)CCC21C (stereo not given) |
| 250 to 252 °C | CC1(C)C=C(n2cccnc2=O)c2cc(C#N)ccc2O1 |
| > 300 °C | O=c1[nH]c2cc(Cl)cc(Cl)c2c(O)c1Sc1ccc(O)cc1 |
| 264 to 265 °C | CC(=O)N[C@H]1CCN(C(=O)c2ccc(-c3[nH]nc4c3C(=O)c3c(NC(=O)NN5CCOCC5)cccc3-4)s2)C1 |
| 122 to 123 °C | CCOC(=O)c1nn(-c2ccc(Cl)cc2)c2c1CCC2 |
| 165 to 168 °C | Nc1nc2c(s1)CCN(CC=Cc1cccc([N+](=O)[O-])c1)CC2 |
| 114 °C | Cc1cc(-c2cc(C(F)(F)F)n3nccc3n2)ccc1Cl |
| 65 °C | CSCOc1ccc2c(c1)CCC1C2CCC2(C)C(=O)CCC12 (stereo not given) |
| 167 to 168 °C | [N-]=[N+]=Nc1cc(Oc2ccc3c(c2)CCN3C(=O)Nc2cccc(C(F)(F)F)c2)ncn1 |
| 239 to 241 °C | COc1cc(C(=O)O)ccc1-c1ccncc1 |
| 182 to 185 °C | O=[N+]([O-])c1ccc(CN2CCCC(O)c3ncccc32)cc1 (stereo not given) |
| 135 to 137 °C | Fc1ccc(CCCC(c2ccc(F)cc2)c2c[nH]cn2)cc1 (stereo not given) |
| 178 to 180 °C | CNC(=O)c1ccc2c(c1C)OC(c1ccccc1)(c1ccccc1)O2 |
| > 270 °C | Nc1nc(N)c(-c2ccc(Cl)cc2Cl)c(CBr)n1 |
| 195 °C | O=C(c1ccccc1)n1cc(F)c(=O)n(C(=O)c2ccccc2)c1=O |
| 255 to 257 °C | Cc1c(C)c(N2CCN(c3ccc(C#N)cc3)CC2)c(C)c2c1OC(C)(C)C2 |
| 198 to 199 °C | CCOc1nc2cccc(C(=O)OC)c2n1Cc1ccc(-c2ccccc2C(N)=O)cc1 |
| 60 to 62 °C | CCCCc1oc2ccc(C(=O)OC)cc2c1C(=O)c1ccc(CCN=[N+]=[N-])cc1 |
| 118 to 120 °C | CCOC(C)n1c(Cl)nc(-c2ccc(OC)cc2)c1-c1ccc(OC)cc1 (stereo not given) |
| 95 to 97 °C | CC(C)[C@H](NC(=O)N(C)Cc1cccnc1)C(=O)N[C@@H](Cc1ccccc1)[C@H](O)[C@@H](O)[C@H](Cc1ccccc1)NC(=O)[C@@H](NC(=O)N(C)Cc1cccnc1)C(C)C |
| 157 to 159 °C | Cc1cc(C)n(-c2cncc(Nc3ccc(Cl)cc3)n2)n1 |
| 267 to 268 °C | Cc1oc(-c2ccccc2)nc1COc1ccc2cc(C=CC=C3SC(=O)NC3=O)ccc2c1 |

| melting point | SMILES |
| --- | --- |
| 130 °C | COc1cc(O)c(C(=O)C=Cc2ccc(C)cc2)c(OC)c1 |
| 78 to 79 °C | C=C(F)C(=O)Oc1ccc(C#N)cc1 |
| 90 to 92 °C | N#CC=Cc1cccc(Cl)c1F |
| 128 to 130 °C | COC(=O)CS(=O)CCCCN(c1cnc(-c2ccccc2)c(-c2ccccc2)n1)C(C)C (stereo not given) |
| 166 °C | O=C(C(=NO)c1ccc(F)cc1)c1ccnc(F)c1 |
| 102 to 103 °C | CCOC(=O)C(=CNc1ncnn1C)C(=O)c1cc(F)c(Cl)nc1Cl |
| 90 °C | CC(C)(C)c1cccc(S(=O)(=O)n2c(C(O)c3ccc(C(=O)O)s3)cc3cc(C(F)(F)F)ccc32)c1 (stereo not given) |
| 181 to 185 °C | CC(C)C(C(=O)O)N(CCN1CCOCC1)S(=O)(=O)c1ccc(-c2ccc(NC(=O)c3cc4ccccc4o3)cc2)cc1 (stereo not given) |
| 168 to 171 °C | O=c1[nH]c(NCCCNc2ccccn2)ncc1Cc1ccc(Cl)cc1 |
| 170 °C | Cc1cccc(NC(=O)NCC(=O)N(CC(=O)N(c2ccccc2)C(C)C)c2ccccc2)c1 |
| 118 to 120 °C | COc1cc(Cl)nc(N(C=O)c2ccccc2)n1 |
| 93 to 99 °C | CCOC(=O)CC1(O)c2ccccc2C=Cc2ccccc21 |
| 174 to 175 °C | CS(=O)(=O)c1ccc(-c2cnn(CC(F)(F)F)c(=O)c2-c2ccc(Cl)c(F)c2)cc1 |
| 69 °C | CCOC(=O)c1c(O)nsc1C |
| 129 to 132 °C | O=C1N(N2CCCCC2)c2ccccc2C1(Cc1ccnc(F)c1)c1ccccc1 (stereo not given) |
| 98 to 99 °C | CC(C)(C)C(=O)c1ccc(S(=O)(=O)C[N+](=O)[O-])s1 |
| 190 to 193 °C | Oc1ccc2ccc(OCc3ccccn3)cc2c1 |
| 153 to 154 °C | CCCCOc1c(CNC(=O)OC(C)(C)C)n(CC(C)C)c(=O)c2ccc(CO)cc12 |
| 75 to 78 °C | CCNC(=O)c1cccs1 |
| 123 to 125 °C | CC(=O)c1c(C)sc(C)c1CC(N)=O |
| 206 to 208 °C | CC1(C)OC(=S)Nc2ccc(-c3cc(Cl)cc(Cl)c3)cc21 |
| 177 °C | Cc1ccc(-c2ccc(C)c(CN3CCN(C(c4ccccc4)c4ccccc4)CC3)c2)cc1 |
| 105 to 106 °C | CN(C)C=Nc1cnc(-c2cccc(CO)c2)nc1 |
| 73 to 75 °C | CCOC(=O)c1c(CCc2ccc(OC)cc2)oc2ccc(Br)cc12 |
| 63 to 64 °C | COC(=O)COc1cc(C)ccc1C=O |
| 148 to 151 °C | COc1cc2c(Nc3ccc(Oc4ccccc4)cc3)c(C#N)cnc2cc1OCCCl |
| 81 to 82 °C | CC(C)(C)OC(=O)CN1CC(c2cccs2)SCC(N)C1=O (stereo not given) |

Second part, the compound before the results:

| SMILES | melting point |
| --- | --- |
| O=c1[nH]c2cc(C(F)(F)F)c(-n3ccnc3)cc2n2c(=S)[nH]nc12 | > 300 °C |
| COc1cc2ncnc(NC3=CC(=O)C(N(C)C)=CC3=O)c2cc1OC | 245 to 250 °C |
| CC(=O)Oc1cc(Cl)ccc1C(=O)NCCO[N+](=O)[O-] | 75 to 77 °C |
| COc1ccc2nc(-c3ccccc3)cc(C(=O)Nc3ccc(CCCCN(C)Cc4ccc(OC)c(OC)c4)cc3)c2c1 | 148 °C |
| Cc1nc(-c2ccccc2)nc(-c2cccc([N+](=O)[O-])c2)c1CNC(N)=S | 227 to 229 °C |
| FC(F)(F)c1nc2cnc3ccccc3c2[nH]1 | 252 to 254 °C |
| COc1ccc(C(=CN(C)C)C(C)=O)cc1 | 51 °C |
| NC(=O)N(O)CCNC(=O)c1cccn1Cc1ccc(Cl)cc1 | 158 to 160 °C |
| OCc1ccc(CCc2ccncc2)cc1 | 163 to 166 °C |
| N#CC(CCCCCC(=O)O)c1ccc2ccccc2c1 (stereo not given) | 88 to 89 °C |
| COC(=O)CCCc1cc2cc(Cl)ccc2n1S(=O)(=O)c1ccc2sc(C)nc2c1 | 136 to 138 °C |
| NNC(=O)c1cccc(-c2csc(N=C(N)N)n2)n1 | 233 to 234 °C |
| CC1(C)CCC(C)(C)c2cc([N+](=O)[O-])ccc21 | 46 to 50 °C |
| CNC1C(O)CC2C3CCC4CC(OC(C)=O)CCC4(C)C3CCC21C (stereo not given) | 197 to 199 °C |
| O=c1[nH]c(N2CCCC(CO)C2)cc2ccccc12 (stereo not given) | 143 to 144 °C |
| CCOC(=O)C(C#N)=NOC(=O)OCC(C)C | 60 to 62 °C |
| Cc1nnc2n1-c1ccccc1C(c1ccccc1)=NC2NC(=O)Nc1ccc(Cl)cc1 (stereo not given) | 292 to 294 °C |
| CC(C)c1nc(CN2C(=O)C3(COc4cc5c(cc43)OCO5)c3ccccc32)co1 (stereo not given) | 118 to 120 °C |
| COc1ccc(CN(C)CCCCc2ccc(NC(=O)c3cccc4c(=O)c5ccccc5[nH]c34)cc2)cc1OC | 140 °C |
| CCCCCOc1ccc(CCOc2ccc(/C=C(\OCC)C(=O)O)cc2OCCCC)cc1Cl | 95 °C |
| CC1C(=O)N(c2ccc([N+](=O)[O-])cc2)C(=S)N1c1ccc(Cc2ccccc2)cc1 (stereo not given) | 200 °C |
| CC(=O)NC(=N)N(C)C1CCN(c2nc3ccccc3n2Cc2ccc(F)cc2)CC1 | 192 °C |
| CCC(C)c1cc(C=O)cc(C(C)CC)c1O (stereo not given) | 65 to 68 °C |

| SMILES | melting point |
| --- | --- |
| O=C1NCCc2[nH]c3c(F)ccc(F)c3c21 | 221 to 223 °C |
| Nc1cc(O)cc2cc(-c3ccc(O)cc3)oc12 | 251 to 254 °C |
| CC(=O)N1CCC(C(=O)N2CC[C@@H](N(C)C(=O)c3ccc(C(F)(F)F)cc3)[C@H](c3ccc(Cl)c(Cl)c3)C2)CC1 | 122 °C |
| CC(=O)Nc1cc2c(cc1[N+](=O)[O-])OCO2 | 207 to 208 °C |
| CCCNC(=O)Nc1cc(-c2c(-c3ccc(F)cc3)nc3cccnn23)ccn1 | 219 to 220 °C |
| C=CCON=C(CC)C1=C(OCc2ccccc2)CC(C)(C)CC1=O | 60.5 to 61.5 °C |
| COC(=O)Nc1nc2cc(C(=NO)c3ccc(F)cc3)ccc2[nH]1 | > 315 °C |
| COC(=O)c1cccc(OC2CCOc3ccc(OCc4ccccc4)cc3C2=O)c1 (stereo not given) | 134 to 136 °C |
| CS(=O)c1nc(-c2ccccc2)c(-c2ccccc2)o1 (stereo not given) | 75 to 78 °C |
| Cc1c(Sc2cccnc2)sc2ccc(C(=O)O)cc12 | 220 to 222 °C |
| CCOC(=O)CNC(=O)N1CS(=O)c2c1cc(C(F)(F)F)cc2[N+](=O)[O-] (stereo not given) | 150 °C |
| O=c1cc(OCc2ccccc2)c2ccc(O)cc2o1 | 234 °C |
| Cc1ccccc1Sc1c(N)cc(C(=O)O)cc1S(N)(=O)=O | 277 °C |
| NCCc1c(C(=O)O)[nH]c2ccc(Br)cc12 | 248 to 249 °C |
| CCOC(=O)c1cn(C)c2cc(CC)ccc2c1=O | 92 to 94 °C |
| CS(=O)(=O)c1ccc(-c2cnn(CC(F)(F)F)c(=O)c2-c2ccc(Cl)c(Cl)c2)cc1 | 197 to 198 °C |
| O=C(CN1C(=O)[C@H](Cl)[C@H]1[S@@](=O)Cc1ccccc1)NCCCCCCc1ccc(F)cc1 | 87 to 89 °C |
| CC1CN(N)C(=O)N1C (stereo not given) | 162 to 164 °C |
| CCNC(=O)Oc1cccc(NC(=O)CC(C)=O)c1 | 138 °C |
| Cc1ccnc(NC(=O)C2CC2)c1[N+](=O)[O-] | 179 °C |
| COC(=O)C1CCC2C3CC(=O)C4(O)CC(O)CCC4(C)C3CCC12C (stereo not given) | 258 to 260 °C |
| CCOC(=O)c1c(N(CC)CC)c2ccc(C)nc2n(CC)c1=O | 79 to 82 °C |
| O=C(Nc1ccccc1C(=O)NCCc1nccs1)c1ccc(Cl)cc1 | 156 to 160 °C |
